Data as given in US20250152585A1, “PHARMACEUTICAL COMPOUND” (Duke Street Bio Limited, priority 2022, published 2025).
Read-outs that look alike come from different tables or passages of the source.

Tests used:
[1] = biological target: T1, N-terminally FLAG-tagged PARP2 (amino acids 1-583) (Homo sapiens, UniProt Q9UGN5); assay: PARP2 probe displacement HTRF assay; type: binding; conditions: binned Kd
T1 construct: N-terminally FLAG-tagged PARP2 (amino acids 1-583)
Procedure: Data analysis was performed identical as for PARP1.

[2] = biological target: T2, full length N-terminally FLAG-tagged PARP1 (Homo sapiens, UniProt P09874); assay: PARP1 probe displacement HTRF assay; conditions: for Selectivity: PARP1 over PARP2, ratio Kd (PARP2)/Kd (PARP1); for Kd: binned Kd
T2 sequence (P09874 whole entry): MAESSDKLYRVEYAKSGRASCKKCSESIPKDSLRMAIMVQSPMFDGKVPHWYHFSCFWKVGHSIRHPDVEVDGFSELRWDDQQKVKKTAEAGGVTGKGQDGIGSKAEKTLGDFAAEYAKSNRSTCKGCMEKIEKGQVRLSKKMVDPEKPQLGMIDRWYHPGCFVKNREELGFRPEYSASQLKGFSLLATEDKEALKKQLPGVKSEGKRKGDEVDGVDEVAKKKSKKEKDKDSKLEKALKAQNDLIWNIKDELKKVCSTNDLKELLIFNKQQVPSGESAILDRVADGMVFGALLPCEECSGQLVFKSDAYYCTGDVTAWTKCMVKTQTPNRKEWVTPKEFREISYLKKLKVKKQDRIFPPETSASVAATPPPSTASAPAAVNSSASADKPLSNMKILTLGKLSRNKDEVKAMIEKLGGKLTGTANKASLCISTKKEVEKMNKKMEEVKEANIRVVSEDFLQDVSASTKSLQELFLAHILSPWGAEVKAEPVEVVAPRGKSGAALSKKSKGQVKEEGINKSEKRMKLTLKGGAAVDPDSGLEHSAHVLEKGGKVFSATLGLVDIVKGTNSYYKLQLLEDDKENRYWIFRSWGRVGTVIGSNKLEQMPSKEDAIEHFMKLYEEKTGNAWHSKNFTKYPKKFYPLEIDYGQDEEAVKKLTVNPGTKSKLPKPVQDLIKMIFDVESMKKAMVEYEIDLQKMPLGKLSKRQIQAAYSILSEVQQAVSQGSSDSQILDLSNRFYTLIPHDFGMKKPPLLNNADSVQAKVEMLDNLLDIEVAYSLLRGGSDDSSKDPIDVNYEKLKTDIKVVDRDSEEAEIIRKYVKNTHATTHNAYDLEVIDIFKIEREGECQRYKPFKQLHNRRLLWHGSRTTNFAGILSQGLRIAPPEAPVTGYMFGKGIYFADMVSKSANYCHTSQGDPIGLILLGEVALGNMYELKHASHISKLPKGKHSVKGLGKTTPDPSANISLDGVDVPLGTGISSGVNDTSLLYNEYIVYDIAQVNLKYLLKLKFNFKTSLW

[3] = biological target: T2, full length N-terminally FLAG-tagged PARP1; assay: PARP1 biochemical DELFIA assay (auto-PARylation); set-up: recombinant full length human N-terminally FLAG-tagged PARP1
[4] = read-out: PARP1 HTRF, PARP1 probe displacement HTRF
[5] = binned IC50, PARP1 biochemical DELFIA assay
[6] = read-out: PARP1 HTRF, probe displacement HTRF
[7] = binned IC50, biochemical auto-PARylation assay
[8] = PARP1 HTRF, PARP1 probe displacement HTRF
[9] = PARP1 HTRF, probe displacement HTRF

T1 sequence (Q9UGN5 whole entry, the tested form may be a part): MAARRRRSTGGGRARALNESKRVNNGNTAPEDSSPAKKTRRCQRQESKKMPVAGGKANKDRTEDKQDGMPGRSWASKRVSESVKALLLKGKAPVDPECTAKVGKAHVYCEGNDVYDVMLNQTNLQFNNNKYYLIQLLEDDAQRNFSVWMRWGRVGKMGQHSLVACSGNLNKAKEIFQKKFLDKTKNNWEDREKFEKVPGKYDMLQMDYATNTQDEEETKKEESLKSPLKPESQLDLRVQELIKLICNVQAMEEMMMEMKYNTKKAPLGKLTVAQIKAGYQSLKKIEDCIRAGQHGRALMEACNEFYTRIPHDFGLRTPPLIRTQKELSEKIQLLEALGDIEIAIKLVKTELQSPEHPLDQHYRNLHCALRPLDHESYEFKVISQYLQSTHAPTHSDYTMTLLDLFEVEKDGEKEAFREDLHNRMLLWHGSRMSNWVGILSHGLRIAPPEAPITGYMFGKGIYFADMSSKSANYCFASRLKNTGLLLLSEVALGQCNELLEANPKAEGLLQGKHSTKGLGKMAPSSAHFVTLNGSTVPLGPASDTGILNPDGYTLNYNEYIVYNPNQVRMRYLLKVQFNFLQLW

Row | Kd ([1]; PARP2 probe displacement HTRF) [nM] | Kd [2, 4] [nM] | IC50 [3, 5] [nM] | Kd ([1]; probe displacement HTRF) [nM] | Kd [2, 6] [nM] | IC50 [3, 7] [nM] | Kd [2, 8] [nM] | Kd [2, 9] [nM] | Structure (SMILES) | Selectivity ([2]; probe displacement HTRF)
1 | 100 to 1000 |  | < 10 |  |  |  | < 10 |  | CNC(=O)c1ccc(N2CC(CN3CCC(c4nc5ccccc5c(=O)[nH]4)CC3)C2)cn1 [Compound 45] | +++ (+++ indicate a value of at least 100)
2 | > 10000 | 100 to 1000 | 100 to 1000 |  |  |  |  |  | CNC(=O)c1ccc(N2CCC(N3CCCC(c4nc5cnccc5c(=O)[nH]4)C3)CC2)cn1 (single isomer, unassigned) [Compound 106a] | + (+ indicates a value of 10 to less than 50)
3 | 1000 to 10000 |  | 100 to 1000 |  |  |  | 100 to 1000 |  | CNC(=O)c1ccc(N2CCC(N3CCCC(c4nc5ccccc5c(=O)[nH]4)C3)CC2)cn1 (single isomer, unassigned) [Compound 6b, N-methyl-5-(3-(4-oxo-3,4-dihydroquinazolin-2-yl)-[1,4′-bipiperidin]-1′-yl)picolinamide] | + (+ indicates a value of 10 to less than 50)
4 | > 10000 | 10 to 100 | 10 to 100 |  |  |  |  |  | CCc1nc(C(=O)NC)ccc1N1CCC(N2CCCC(c3nc4ccccc4c(=O)[nH]3)C2)CC1 (single isomer, unassigned) [Compound 112b] | +++ (+++ indicate a value of at least 100)
5 |  |  |  | > 10000 |  | < 10 |  | < 10 | CNC(=O)c1ccc(N2CCC(N3CC4(c5nc6ccccc6c(=O)[nH]5)CC3(CO)C4)CC2)cn1 [Compound 284] | +++ (+++ indicate a value of at least 100)

More lines, now with the values behind:

Row | Structure (SMILES) | Kd ([1]; PARP2 probe displacement HTRF) [nM] | Kd [2, 4] [nM] | IC50 [3, 5] [nM] | Kd ([1]; probe displacement HTRF) [nM] | Kd [2, 6] [nM] | IC50 [3, 7] [nM] | Kd [2, 8] [nM] | Kd [2, 9] [nM] | Selectivity ([2]; probe displacement HTRF)
6 | CCc1ccc(C2CCN(C3CCN(c4ccc(C(=O)NC)nc4C)CC3)C2)[nH]c1=O (single isomer, unassigned) [Compound 133b] | > 10000 | 10 to 100 | 10 to 100 |  |  |  |  |  | +++ (+++ indicate a value of at least 100)
7 | CCCc1ccc(C2CCN(C3CCN(c4ccc(C(=O)NC)nc4)CC3)C2)[nH]c1=O (single isomer, unassigned) [Compound 261b] |  |  |  | 1000 to 10000 | < 10 | < 10 |  |  | +++ (+++ indicate a value of at least 100)
8 | N#Cc1ccc(N2CCC(N3CCC(c4cc5cccc(F)c5c(=O)[nH]4)C3)CC2)c(Cl)c1 (single isomer, unassigned) [Compound 378b] |  |  |  | 1000 to 10000 | < 10 | < 10 |  |  | +++ (+++ indicate a value of at least 100)
9 | CNC(=O)c1ccc(N2CCC(N3CCC(c4nc5c(F)ccc(F)c5c(=O)[nH]4)C3)CC2)cn1 (single isomer, unassigned) [Compound 182b] | 100 to 1000 | < 10 | < 10 |  |  |  |  |  | +++ (+++ indicate a value of at least 100)
10 | O=C(NC1CC1)c1ccc(N2CCC(N3CC4(c5nc6cccc(F)c6c(=O)[nH]5)CC3C4)CC2)c(F)n1 [Compound 376] |  |  |  | 100 to 1000 |  | < 10 |  | < 10 | +++ (+++ indicate a value of at least 100)
11 | CS(=O)(=O)Nc1ccc(N2CCC(N3CCC(c4cc5ccccc5c(=O)[nH]4)C3)CC2)cc1 (single isomer, unassigned) [Compound 251b] |  |  |  | 100 to 1000 | 10 to 100 | 10 to 100 |  |  | + (+ indicates a value of 10 to less than 50)
12 | CNC(=O)c1ccc(N2CCC(N3CCC(c4nc5c(c(C(F)(F)F)nn5C)c(=O)[nH]4)C3)CC2)cn1 (single isomer, unassigned) [Compound 187b] | < 10 | < 10 | < 10 |  |  |  |  |  | − (− indicates a value of less than 10)
13 | O=c1[nH]c(C2CCCN(C3CCN(c4ccc(F)cc4F)CC3)C2)nc2ccccc12 (single isomer, unassigned) [Compound 113b] | > 10000 | 100 to 1000 | 100 to 1000 |  |  |  |  |  | + (+ indicates a value of 10 to less than 50)
14 | N#Cc1ccc(N2CCC(N3CCCC(c4nc5ccccc5c(=O)[nH]4)C3)CC2)cn1 (single isomer, unassigned) [Compound 70a] | 1000 to 10000 | 100 to 1000 | 10 to 100 |  |  |  |  |  | + (+ indicates a value of 10 to less than 50)
